The values below come from patent US5369103A, “Piperazine derivatives” (John Wyeth & Brother, Limited, priority 1990, dated 1994).

The test system of assay [1] is α1 sites. As to the kind of experiment: affinity for α1 sites. Conditions: read-out: 1C50. Type of assay: binding.
Assay [2] deals with T1, 5HT1A receptor (Rattus norvegicus, UniProt P19327).
T1 construct: rat hippocampal membrane homogenate; from tissue; host or cells: rat hippocampus, membrane homogenate
T1 sequence (P19327 1-422): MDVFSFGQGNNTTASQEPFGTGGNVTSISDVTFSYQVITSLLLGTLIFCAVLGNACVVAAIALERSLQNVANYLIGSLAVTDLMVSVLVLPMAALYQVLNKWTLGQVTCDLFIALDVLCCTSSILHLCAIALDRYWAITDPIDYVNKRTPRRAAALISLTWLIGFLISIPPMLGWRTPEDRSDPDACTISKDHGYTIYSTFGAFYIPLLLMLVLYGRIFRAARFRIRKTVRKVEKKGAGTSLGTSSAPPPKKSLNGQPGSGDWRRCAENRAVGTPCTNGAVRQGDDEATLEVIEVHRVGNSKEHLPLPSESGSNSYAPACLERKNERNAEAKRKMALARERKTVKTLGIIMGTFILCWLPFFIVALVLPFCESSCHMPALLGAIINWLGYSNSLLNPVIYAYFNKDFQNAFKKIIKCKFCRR
As to the kind of experiment: 5HT1A receptor binding activity in rat hippocampal membrane homogenate. Conditions: read-out: 1C50. As for the experimental part: The compounds of the invention were tested for 5HT1A receptor binding activity in rat hippocampal membrane homogenate by the method of B. S. Alexander and M. D. Wood, J Pharm Pharmacol, 1988, 40,888-891. The results for representative compounds of the invention are given below

The target in assay [3] is T2, 5HT1A receptor (Cavia porcellus, UniProt A0A286Y074).
T2 construct: guinea-pig ileum in vitro; from tissue; host or cells: guinea-pig ileum
T2 sequence (A0A286Y074 1-421): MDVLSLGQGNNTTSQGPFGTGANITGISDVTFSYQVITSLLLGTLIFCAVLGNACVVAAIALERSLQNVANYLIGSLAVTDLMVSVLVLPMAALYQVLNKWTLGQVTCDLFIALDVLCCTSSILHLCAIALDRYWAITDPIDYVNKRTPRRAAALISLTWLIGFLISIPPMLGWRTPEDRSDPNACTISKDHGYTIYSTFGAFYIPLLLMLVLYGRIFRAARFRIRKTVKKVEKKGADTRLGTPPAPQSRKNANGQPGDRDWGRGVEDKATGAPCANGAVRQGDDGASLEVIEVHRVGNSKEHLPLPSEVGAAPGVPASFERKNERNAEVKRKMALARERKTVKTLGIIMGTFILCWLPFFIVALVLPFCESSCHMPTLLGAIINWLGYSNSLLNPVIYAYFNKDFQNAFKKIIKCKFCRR
The assay is described as follows: 5HT1A receptor antagonism: antagonism of 5-carboxamidotryptamine in the guinea-pig ileum in vitro. Type of assay: cell-based. The note with it: read-out: pA2 (converted). As for the experimental part:
The compounds are tested for 5HT1A receptor antagonism activity in a test involving the antagonism of 5-carboxamidotryptamine in the guinea-pig ileum in vitro (based upon the procedure of Fozard et al, Br J Pharmac, 1985, 86, 601P).

Turning to `COc1ccccc1N1CCN(C/C(=C/C(=O)N2CCCCCC2)c2ccccc2)CC1` [Example 3 (E-isomer), 2,3,4,5,6,7-Hexahydro-1-[4-(4-(2-methoxyphenyl)piperazin-1-yl)-3-phenylbut-2-enoyl]-1H-azepine], the IC50 in assay [1] amounted to 2160 nM; in assay [2], 9 nM.

Consider `COc1ccccc1N1CCN(CC(CC(=O)N2CCCCCC2)c2ccccc2)CC1` (centres unmarked) [Example 6, 2,3,4,5,6,7-Hexahydro-1-[4-(4-(2-methoxyphenyl)piperazin-1-yl)-3-phenylbutanoyl]-1H-azepine], for which the IC50 amounted to 682 nM in assay [1] and 1.38 nM in assay [2]. In addition, the Kb in assay [3] is 0.794 nM.
